Drawing on patent publication US20130123215A1, “2,5-DIOXOIMIDAZOLIDIN-1-YL-3-PHENYLUREA DERIVATIVES AS FORMYL PEPTIDE RECEPTOR LIKE-1 (FPRL-1) RECEPTOR MODULATORS” (ALLERGAN, INC., priority 2011, published 2013), this text covers EC50 for six compounds.

The target in this assay is T1, FPRL-1 (Homo sapiens, UniProt P25090).
T1 construct: expressed in transfected cells; host or cells: CHO-Gα16 cells stably expressing FPRL1
T1 sequence (P25090 1-351): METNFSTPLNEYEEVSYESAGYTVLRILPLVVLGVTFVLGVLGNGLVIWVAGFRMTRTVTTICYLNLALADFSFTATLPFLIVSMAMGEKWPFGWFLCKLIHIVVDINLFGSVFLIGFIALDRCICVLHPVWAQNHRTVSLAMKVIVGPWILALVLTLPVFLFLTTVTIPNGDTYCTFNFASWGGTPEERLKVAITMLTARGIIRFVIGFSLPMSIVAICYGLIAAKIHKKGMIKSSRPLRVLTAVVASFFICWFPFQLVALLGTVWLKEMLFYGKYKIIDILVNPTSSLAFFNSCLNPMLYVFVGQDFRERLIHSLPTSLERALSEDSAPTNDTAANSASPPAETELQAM
As to the kind of experiment: FPRL-1 Ga16-CHO compound-induced calcium activity (FLIPR Tetra). The settings on record: CHO-Gα16 cells stably expressing FPRL1; calcium activity on FLIPR Tetra; tested at 0.61 to 10,000 nM; read-out: FPRL-1 Ga16-CHO EC50. Format: cell-based. As to the method:
HEK-Gα16 and CHO-Gα16 cells stably expressing FPRL1 were cultured in (F12, 10% FBS, 1% PSA, 400 μg/ml geneticin and 50 μg/ml hygromycin) and HEK-Gqi5 cells stable expressing FPR1 were cultured in (DMEM high glucose, 10% FBS, 1% PSA, 400 μg/ml geneticin and 50 μg/ml hygromycin). In general, the day before the experiment, 18,000 cells/well were plated in a 384-well clear bottom poly-d-lysine coated plate. The following day the screening compound-induced calcium activity was assayed on the FLIPR^Tetra. The drug plates were prepared in 384-well microplates using the EP3 and the MultiPROBE robotic liquid handling systems. Compounds were tested at concentrations ranging from 0.61 to 10,000 nM. Results are expressed as EC50 (nM) and efficacy values.

Broadly, the EC50 is the midpoint of the concentration-response curve. `CCc1ccc(NC(=O)NN2C(=O)NC(CC)(CC)C2=O)cc1` [Compound 4, 1-(4-Ethylphenyl)-3-(4,4-diethyl-2,5-dioxoimidazolidin-1-yl)urea]: the EC50 is 125 nM.
In the case of `CCC1(CC)NC(=O)N(NC(=O)Nc2ccc(Br)cc2F)C1=O` [Compound 6, 1-(4-Bromo-2-fluorophenyl)-3-(4,4-diethyl-2,5-dioxoimidazolidin-1-yl)urea] it was 15.6 nM; in that of `CC1(CCc2cccs2)NC(=O)N(NC(=O)Nc2ccc(Br)cc2F)C1=O` (stereo not drawn) [Compound 44], 86 nM; in that of `O=C(Nc1ccc(Br)cc1F)NN1C(=O)NC2(CCCC2)C1=O` [Compound 11, 1-(4-Bromo-2-fluorophenyl)-3-(2,4-dioxo-1,3-diazaspiro[4.4]nonan-3-yl)urea], 23.9 nM.
`CCC1(CCc2ccccc2)NC(=O)N(NC(=O)Nc2ccc(Br)cc2)C1=O` (stereo not drawn) [Compound 30, 1-(4-Bromophenyl)-3-(4-ethyl-2,5-dioxo-4-(phenethyl)imidazolidin-1-yl)urea]: the EC50 amounted to 0.5 nM.
In the case of `CC1(CCc2ccc(Cl)cc2)NC(=O)N(NC(=O)Nc2ccc(Br)cc2)C1=O` (stereo not drawn) [Compound 33, 1-(4-Bromophenyl)-3-(4-(4-chlorophenethyl)-4-methyl-2,5-dioxoimidazolidin-1-yl)urea] it was 333 nM.
